The values below come from patent US20250179559A1, “DUAL-LUCIFERASE REPORTER GENE DETECTION SYSTEM, FLUORESCENCE DETECTION KIT, AND METHOD FOR DETECTING LUMINESCENT SIGNAL OF LUCIFERASE” (BGI SHENZHEN, priority 2022, published 2025).

The test system of test [1] is wild-type Gaussia luciferase (WT-Gluc). The test is described as follows: Luminescence intensity of substrates with wild-type Gaussia luciferase. The test is classed as biochemical, Gaussia princeps. The following applies: for Gluc fluorescence intensity: luciferase 1 μg/mL (10 μL), substrate 10 μM (90 μL), microplate reader; for Gluc relative intensity: percentage relative to wild-type Pleuromamma xiphias luciferase with compound N0, substrate 10 μM. The procedure:
(§1) [drawing 6] • (3) According to the conventional methods, such as the method disclosed in PCT/CN2017/082180, an expression vector (plasmid) containing the wild-type Gaussia luciferase gene and the wild-type Pleuromamma xiphias luciferase gene was constructed. The plasmid was transformed into Escherichia coli OrigamiB (DE3), which was coated on a plate, and a single colony was picked from the plate, cultured overnight at 37° C., diluted at a ratio of 1:100 on the next day, transferred to 3 mL of fresh LB medium containing ampicillin resistance (100 μg/mL), cultured with shaking at 37° C. and 200 rpm for 4 hours, and cooled on ice for 1 hour. The inducer IPTG was added at a final concentration of 1 mM and the induction was preformed overnight at 16° C. On the next day, the bacteria were collected by centrifugation, resuspended with 500 μL lysate (50 mM Tris-HCl pH 8.0, 500 mM NaCl, 0.2% lysozyme, PMSF), lysed for 20 minutes at room temperature, frozen with liquid nitrogen and thawed for 3 times, and centrifuged for 30 minutes at 18,000 g. The supernatant was taken, which was purified by using a centrifugal Ni column. The protein eluted by Ni column was dialyzed with dialysis buffer (25 mM Tris, pH 8.0, 250 mM NaCl) at 4° C. overnight. The concentration of luciferase was accurately determined by using a BCA quantitative kit (Thermoscientific™ Pierce™ BCA protein assay kit). The two luciferases were diluted to a concentration of 1 μg/mL with a diluent (50 mM Tris-HCl pH 8.0, 100 mM NaCl, 0.1% (v/v) Tween-20), and 10 μL of each luciferase was taken and added to a black 96-well plate. The substrate was diluted to 10 μM with the same diluent, 90 μL of the substrate was taken add into the 96-well plate containing the above luciferases (90 μL/well), and the luminescence intensity was read by using a light-emitting module of a microplate reader. The test data of the Gaussia luciferase and the Pleuromamma xiphias luciferase on different substrates were shown in Table 1, in which the relative intensity is a percentage relative to the activity of wild-type Pleuromamma xiphias luciferase and compound N0. […] That is, in this dual-luciferase reporter gene detection system, the optimal luminescent combination with high fluorescence brightness and low cross-interference obtained after screening is using f-CTZ to detect the Gaussia luciferase, and using N0 to detect the Pleuromamma xiphias luciferase.

In test [2] the test system is wild-type Pleuromamma xiphias luciferase (WT-Pxluc). Description: Luminescence intensity of substrates with wild-type Pleuromamma xiphias luciferase. Format: biochemical. Particulars: for Pxluc fluorescence intensity: luciferase 1 μg/mL (10 μL), substrate 10 μM (90 μL), microplate reader; for Pxluc relative intensity: percentage relative to wild-type Pleuromamma xiphias luciferase with compound N0, substrate 10 μM. How it is done: as §1

Test [3] has as its system Pleuromamma xiphias luciferase mutant P26-95. Description: Luminescence intensity of substrates with Pleuromamma xiphias luciferase mutant P26-95. Format: biochemical. The following applies: mutant P26-95, among tested substrates. How it is done:
(§2) The two luciferases were diluted to a concentration of 1 μg/mL with a diluent (50 mM Tris-HCl pH 8.0, 100 mM NaCl, 0.1% (v/v) Tween-20), and 10 μL of each luciferase was taken and added to a black 96-well plate. The substrate was diluted to 10 μM with the same diluent, 90 μL of the substrate was taken add into the 96-well plate containing the above luciferases (90 μL/well), and the luminescence intensity was read by using a light-emitting module of a microplate reader.
Mutant-Type Pleuromamma xiphias Luciferase P26-95: • d) P26-95: based on SEQ ID NO: 3, the following sites were mutated: G83A, and G84P.
(§3) According to the method as described in Example 1, an expression vector containing the gene of the Gaussia luciferase mutant and the gene of the Pleuromamma xiphias luciferase mutant was constructed, a recombinant strain was constructed, the mutant-type luciferases were expressed, and the luminous intensity of substrates and luciferases was detected.

In test [4] the test system is Gaussia luciferase mutant E1-A3. Description: Luminescence intensity of substrates with Gaussia luciferase mutant E1-A3. Format: biochemical, Gaussia princeps. The following applies: mutant E1-A3, among tested substrates. The procedure:
as §2, §3

The test system of test [5] is Gaussia luciferase mutant G2-F11. Description: Luminescence intensity of substrates with Gaussia luciferase mutant G2-F11. The test is classed as biochemical, Gaussia princeps. The following applies: mutant G2-F11, among tested substrates. How it is done:
as §2, §3

Test [6] has as its system Gaussia luciferase mutant G2-F8. Description: Luminescence intensity of substrates with Gaussia luciferase mutant G2-F8. Format: biochemical, Gaussia princeps. The following applies: mutant G2-F8, among tested substrates. How it is done:
as §2, §3

Turning to `O=c1c(Cc2ccc(O)cc2)nc2c(Cc3ccccc3)[nH]c(-c3cccc(O)c3)cn1-2` [Substrate N0], in test [1], the Gluc fluorescence intensity is on record as 5338 and the Gluc relative intensity amounted to 3.3%. In test [2], the Pxluc fluorescence intensity was 160037 and the Pxluc relative intensity is 100%. For the same molecule, the “fluorescence intensity compared among substrates (in words)” value in test [2] (wild-type Pleuromamma xiphias luciferase, among tested substrates) is “highest fluorescence intensity”. The “fluorescence intensity compared among substrates (in words)” value in test [3] is reported as “highest fluorescence intensity”.
On to `O=c1c(Cc2ccc(O)cc2)nc2c(Cc3ccccc3)[nH]c(Cc3ccccc3)cn1-2` [Substrate N1], for which, in test [1], the Gluc fluorescence intensity came out at 0 and the Gluc relative intensity came to 0.0%. Also, in test [2], the Pxluc fluorescence intensity was 1173 and the Pxluc relative intensity amounted to 0.7%.
The corresponding values for `O=c1c(Cc2ccc(F)cc2)nc2c(Cc3ccccc3)[nH]c(Cc3ccccc3)cn1-2` [Substrate N2] are 0, 0.0%, 3026 and 1.9%.
As for `CN(C)c1ccc(-c2cn3c(=O)c(Cc4ccc(O)cc4)nc-3c(Cc3ccccc3)[nH]2)cc1` [Substrate N3], in test [1], the Gluc fluorescence intensity is 263 and the Gluc relative intensity was determined as 0.2%. Besides, in test [2], the Pxluc fluorescence intensity came out at 1520 and the Pxluc relative intensity is 0.9%.
The corresponding values for `CN(C)c1ccc(-c2cn3c(=O)c(Cc4ccc(F)cc4)nc-3c(Cc3ccccc3)[nH]2)cc1` [Substrate N4] are 17, 0.0%, 4137 and 2.6%.
In the same order, the values of `Nc1ccc(-c2cn3c(=O)c(Cc4ccc(O)cc4)nc-3c(Cc3ccccc3)[nH]2)cc1` [Substrate N5] are 457, 0.3%, 4430 and 2.8%.
`Nc1ccc(-c2cn3c(=O)c(Cc4ccc(F)cc4)nc-3c(Cc3ccccc3)[nH]2)cc1` [Substrate N6]: in test [1], the Gluc fluorescence intensity is given as 15 and the Gluc relative intensity is on record as 0.0%. Moreover, in test [2], the Pxluc fluorescence intensity was determined as 3464 and the Pxluc relative intensity came to 2.2%.
The corresponding values for `O=c1c(Cc2ccc(O)cc2)nc2c(Cc3ccccc3)[nH]c(/C=C/c3ccccc3)cn1-2` [Substrate N7] are 135, 0.1%, 4430 and 2.8%.
For `O=c1c(Cc2ccc(F)cc2)nc2c(Cc3ccccc3)[nH]c(/C=C/c3ccccc3)cn1-2` [Substrate N8], in test [1], the Gluc fluorescence intensity is 12 and the Gluc relative intensity was 0.0%. In addition, in test [2], the Pxluc fluorescence intensity is on record as 1426 and the Pxluc relative intensity is reported as 0.9%.
Regarding `O=c1c(Cc2ccc(F)cc2)nc2c(Cc3ccccc3)[nH]c(-c3ccc(O)cc3)cn1-2` [f-CTZ], the Gluc fluorescence intensity in test [1] was determined as 10186.5. Further, the Gluc relative intensity in test [1] was 6.4%. Besides, the “fluorescence intensity compared among substrates (in words)” value is recorded as “highest fluorescence intensity” in test [1] (wild-type Gaussia luciferase, among tested substrates); “highest fluorescence intensity” in test [4]; “highest fluorescence intensity” in test [5]; “highest fluorescence intensity” in test [6]. In addition, the Pxluc fluorescence intensity in test [2] amounted to 69138. The Pxluc relative intensity in test [2] was determined as 43.2%.
